From patent US20240199640A1, “NEGATIVE ALLOSTERIC MODULATORS OF METABOTROPIC GLUTAMATE RECEPTOR 2” (priority 2021, published 2024)

How the values were obtained:
human mGlu3 = target: T1, human mGlu3 (Homo sapiens, UniProt Q14832); test: mGlu GIRK cell-based thallium flux assay, human mGlu3; conditions: HEK-293 cells co-expressing human mGlu3 and GIRK; EC80 glutamate; Tl flux
T1 construct: expressed in transfected cells; host or cells: HEK-293
Procedure: Human embryonic kidney (HEK-293) cell lines stably co-expressing human or rat mGlu2 and G protein-coupled inwardly rectifying potassium (GIRK) channels, or human mGlu3 and GIRK, were used for in vitro evaluation of compound activity in thallium flux assay using a fluorescent thallium indicator dye.
The day before the assay, GIRK cells co-expressing human mGlu3, human or rat mGlu2, as described above, were plated in black-walled, clear-bottomed, amine-coated 384-well plates at a density of 15,000 cells/20 μL/well in the assay medium (glutamine-depleted basal DMEM supplemented with 10% dialyzed FBS, 20 mM HEPES, 1 mM sodium pyruvate). Cells were incubated at 37° C. in the presence of 5% CO2. The next day, assay buffer (Hanks balanced salt solution, 20 mM HEPES, 4.16 mM sodium bicarbonate, pH 7.2) was prepared to dilute compounds and Thallos AM fluorescent dye solution. The 2× Thallos dye solution (final concentration 0.34 μM to the cells) was prepared by mixing the dye stock (2.97 mM in DMSO) to 1:1 with 10% pluronic acid before adding to the assay buffer. Cells were washed with assay buffer using a microplate washer to remove the medium, resulting in 20 μL of buffer remaining in each well. Immediately, 20 μL of 2× Thallos dye solution was added to cells, and incubated for one hour at 25° C. During the cell dye loading incubation period, a 10-point concentration serial dilution of compound was created from a 10 mM DMSO compound stock by performing a 1:3 serial dilution in DMSO using the Bravo liquid handler. The 2× compound plate was generated by transferring 0.24 μL of the diluted compound in each well to a daughter plate using an Echo acoustic liquid handler. This is further diluted in 40 μL assay buffer, resulting in a range from 30 μM to 1.5 nM final concentration in the assay. The agonist plate (5×) was prepared to include EC80 glutamate concentration (a concentration to elicit 80% of a maximally effective glutamate concentration) in thallium buffer (125 mM […], 1 mM magnesium sulfate, 1.8 mM calcium sulfate, 5 mM glucose, 10 mM HEPES, pH 7.2, 12.5 mM thallium sulfate).
(§1) After dye-loading, cell plates were washed with assay buffer to remove excess extracellular dye using a microplate washer, resulting in 20 μL of buffer remaining in each well. After a ten-minute equilibration period, cell, compound and agonist plates were loaded into a Hamamatsu μCell kinetic imaging plate reader equipped with liquid handler to monitor fluorescence changes at 480 nm excitation and 540 nm emission settings. Briefly, after collection of baseline fluorescence, 20 μL of compound was added and incubated for two minutes and twenty seconds. This is immediately followed by adding 10 μL of glutamate-thallium buffer to the wells containing compound. The fluorescent signal was monitored an additional 2.5 minutes after the glutamate addition. Multiple reference wells containing no compound received either no glutamate (for a baseline reference), […] glutamate, or ECmax glutamate (for normalization to maximum response). Fluorescence was measured throughout the experiment at a frequency of 1 measurement per every 2 seconds before the glutamate addition and a frequency of 1 measurement per every 1 second after the glutamate addition. Each compound concentration series occurred one time in each plate, and replicates from two or three plates were used in each experimental run. Thallium solutions were handled and disposed of according to guidelines from the Vanderbilt University Chemical Safety department.
Data were normalized using a static ratio function (F/F0) by dividing every fluorescent measurement by the initial fluorescent value for the corresponding well. The increase in signal resulting from the glutamate/thallium addition of the second add was measured by determining the slope from 3 seconds to 13 seconds after the addition. […]

human mGlu2 = target: T2, human mGlu2 (Homo sapiens, UniProt Q14416); test: mGlu GIRK cell-based thallium flux assay, human mGlu2; conditions: HEK-293 cells co-expressing human mGlu2 and GIRK; EC80 glutamate; Tl flux
T2 construct: expressed in transfected cells; host or cells: HEK-293
T2 sequence (Q14416 19-872): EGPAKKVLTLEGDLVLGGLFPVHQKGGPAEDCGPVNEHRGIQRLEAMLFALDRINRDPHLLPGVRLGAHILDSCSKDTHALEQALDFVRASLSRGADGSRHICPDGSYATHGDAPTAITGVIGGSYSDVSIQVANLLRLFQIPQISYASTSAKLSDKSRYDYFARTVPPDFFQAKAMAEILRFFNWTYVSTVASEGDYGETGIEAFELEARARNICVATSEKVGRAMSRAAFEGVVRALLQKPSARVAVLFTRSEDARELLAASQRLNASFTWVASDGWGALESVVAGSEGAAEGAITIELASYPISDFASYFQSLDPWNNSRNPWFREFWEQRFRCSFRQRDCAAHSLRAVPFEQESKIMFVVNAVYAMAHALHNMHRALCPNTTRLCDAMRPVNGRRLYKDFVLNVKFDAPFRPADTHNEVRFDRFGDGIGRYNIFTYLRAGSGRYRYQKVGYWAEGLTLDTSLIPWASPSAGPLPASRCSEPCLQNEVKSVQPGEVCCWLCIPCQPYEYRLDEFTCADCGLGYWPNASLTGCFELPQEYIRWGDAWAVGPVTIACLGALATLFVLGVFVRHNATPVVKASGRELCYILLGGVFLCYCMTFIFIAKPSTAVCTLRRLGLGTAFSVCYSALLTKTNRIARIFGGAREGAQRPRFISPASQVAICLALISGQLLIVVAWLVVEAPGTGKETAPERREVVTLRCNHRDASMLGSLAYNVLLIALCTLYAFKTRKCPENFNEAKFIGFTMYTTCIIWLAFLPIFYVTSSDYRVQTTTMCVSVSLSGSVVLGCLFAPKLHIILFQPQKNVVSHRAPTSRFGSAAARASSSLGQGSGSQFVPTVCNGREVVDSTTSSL
Procedure: The day before the assay, GIRK cells co-expressing human mGlu3, human or rat mGlu2, as described above, were plated in black-walled, clear-bottomed, amine-coated 384-well plates at a density of 15,000 cells/20 μL/well in the assay medium (glutamine-depleted basal DMEM supplemented with 10% dialyzed FBS, 20 mM HEPES, 1 mM sodium pyruvate). Cells were incubated at 37° C. in the presence of 5% CO2. […] Cells were washed with assay buffer using a microplate washer to remove the medium, resulting in 20 μL of buffer remaining in each well. Immediately, 20 μL of 2× Thallos dye solution was added to cells, and incubated for one hour at 25° C. During the cell dye loading incubation period, a 10-point concentration serial dilution of compound was created from a 10 mM DMSO compound stock by performing a 1:3 serial dilution in DMSO using the Bravo liquid handler. The 2× compound plate was generated by transferring 0.24 μL of the diluted compound in each well to a daughter plate using an Echo acoustic liquid handler.
as §1
Data were normalized using a static ratio function (F/F0) by dividing every fluorescent measurement by the initial fluorescent value for the corresponding well. The increase in signal resulting from the glutamate/thallium addition of the second add was measured by determining the slope from 3 seconds to 13 seconds after the addition. The average of all baseline slopes (no compound, no glutamate) was determined and this value was subtracted from all other slope values. The average of all ECmax slopes was determined and this value was used to normalize the baseline-corrected slopes to a percent max value (% Emax). The % Emax values for each compound series were plotted versus the log of the concentration and fit to a 4-parameter logistical equation with no fixed parameters.
Potency is reported as the IC50 resulting from the curve fit.

Helpless (H) mice = conditions: chronic (21 days) treatment; cited from earlier work
group II mGlu receptors = conditions: cited from earlier work

T1 sequence (Q14832 23-879): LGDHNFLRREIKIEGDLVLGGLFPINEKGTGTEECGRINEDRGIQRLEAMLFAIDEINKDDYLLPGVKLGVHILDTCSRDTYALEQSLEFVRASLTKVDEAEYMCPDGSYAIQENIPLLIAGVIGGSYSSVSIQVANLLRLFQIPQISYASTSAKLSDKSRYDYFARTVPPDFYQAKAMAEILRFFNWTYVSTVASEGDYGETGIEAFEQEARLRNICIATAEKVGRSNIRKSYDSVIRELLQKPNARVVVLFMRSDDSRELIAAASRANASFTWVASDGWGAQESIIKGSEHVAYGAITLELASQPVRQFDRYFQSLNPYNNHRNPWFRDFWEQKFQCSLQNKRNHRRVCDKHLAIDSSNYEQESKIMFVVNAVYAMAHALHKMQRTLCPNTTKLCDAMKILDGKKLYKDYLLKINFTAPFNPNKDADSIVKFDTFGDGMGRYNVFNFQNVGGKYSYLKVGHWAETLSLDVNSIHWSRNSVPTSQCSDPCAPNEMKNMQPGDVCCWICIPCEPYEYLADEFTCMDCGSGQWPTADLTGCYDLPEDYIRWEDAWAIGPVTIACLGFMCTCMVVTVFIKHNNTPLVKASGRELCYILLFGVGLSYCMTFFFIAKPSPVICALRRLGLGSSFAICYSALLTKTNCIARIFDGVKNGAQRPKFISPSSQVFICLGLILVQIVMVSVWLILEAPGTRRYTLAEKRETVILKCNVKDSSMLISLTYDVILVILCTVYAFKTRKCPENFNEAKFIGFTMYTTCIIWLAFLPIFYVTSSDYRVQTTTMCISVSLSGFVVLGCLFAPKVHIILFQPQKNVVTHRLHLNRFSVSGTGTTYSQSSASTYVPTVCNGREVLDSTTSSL

| SMILES | Human mGlu3 GIRK IC50 (nM) (human mGlu3) | IC50 (human mGlu2) | other results |
| --- | --- | --- | --- |
| COc1ccc(-c2cc3c(cc2OCc2csc(C)n2)CNC3=O)cc1 [Compound 19, 6-(4-methoxyphenyl)-5-((2-methylthiazol-4-yl)methoxy)isoindolin-1-one] | Inactive | 119 nM |  |
| Cn1ccc(COc2cc3c(cc2-c2ccc(F)cc2)C(=O)NC3)n1 [Compound 1, 6-(4-fluorophenyl)-5-((1-methyl-1H-pyrazol-3-yl)methoxy)isoindolin-1-one] | Inactive | 594 nM |  |
| COc1ccc(-c2cc3c(cc2OCc2ccn(C(F)F)n2)CNC3=O)c(F)c1 [Compound 25, 5-((1-(difluoromethyl)-1H-pyrazol-3-yl)methoxy)-6-(2-fluoro-4-methoxyphenyl)isoindolin-1-one] | Inactive | 40 nM |  |
| Cc1ncc(COc2cc3c(cc2-c2ccc(F)cc2)C(=O)NC3)s1 [Compound 2, 6-(4-fluorophenyl)-5-((2-methylthiazol-5-yl)methoxy)isoindolin-1-one] | Inactive | 380 nM |  |
| Cc1ccc(COc2cc3c(cc2-c2ccc(F)cc2)C(=O)NC3)cn1 [Compound 5, 6-(4-fluorophenyl)-5-((6-methylpyridin-3-yl)methoxy)isoindolin-1-one] | Inactive | 392 nM |  |
| COc1ccc(-c2cc3c(cc2OCc2csc(C)n2)CNC3=O)c(F)c1 [Compound 15, 6-(2-fluoro-4-methoxyphenyl)-5-((2-methylthiazol-4-yl)methoxy)isoindolin-1-one] | Inactive | 360 nM |  |
| COc1cccc(COc2cc3c(cc2-c2ccc(F)cc2)C(=O)NC3)c1 [Compound 7, 6-(4-fluorophenyl)-5-((3-methoxybenzyl)oxy)isoindolin-1-one] | Inactive | 8290 nM |  |
| O=C1NCc2cc(OCc3cc4n(n3)CCCO4)c(-c3ccc(F)cc3)cc21 [Compound 10, 5-((6,7-dihydro-5H-pyrazolo[5,1-b][1,3]oxazin-2-yl)methoxy)-6-(4-fluorophenyl)isoindolin-1-one] | Inactive | 423 nM |  |
| CNCCC(Oc1ccc(C(F)(F)F)cc1)c1ccccc1 (stereo not drawn) [fluoxetine] |  |  | antidepressant effect in helpless mice (Helpless (H) mice): full antidepressant effect |
| Cc1nc(COc2cc3c(cc2-c2ccccc2C#N)C(=O)NC3)cs1 [Compound 20, 2-(6-((2-methylthiazol-4-yl)methoxy)-3-oxoisoindolin-5-yl)benzonitrile] | Inactive | 189 nM |  |
| COc1ccc(-c2cc3c(cc2OCc2ccn(C)n2)CNC3=O)c(F)c1 [Compound 11, 6-(2-fluoro-4-methoxyphenyl)-5-((1-methyl-1H-pyrazol-3-yl)methoxy)isoindolin-1-one] | Inactive | 131 nM |  |
| [2H]C([2H])([2H])Oc1ccc(-c2cc3c(cc2OCc2csc(C)n2)CNC3=O)cc1 [Compound 22, 6-(4-(methoxy-d3)phenyl)-5-((2-methylthiazol-4-yl)methoxy)isoindolin-1-one] | Inactive | 115 nM |  |
| Cn1ccc(COc2cc3c(cc2-c2ccccc2F)C(=O)NC3)n1 [Compound 13, 6-(2-fluorophenyl)-5-((1-methyl-1H-pyrazol-3-yl)methoxy)isoindolin-1-one] | Inactive | 214 nM |  |
| COc1ccc(-c2cc3c(cc2OCc2ccn(C)n2)CNC3=O)cc1 [Compound 12, 6-(4-methoxyphenyl)-5-((1-methyl-1H-pyrazol-3-yl)methoxy)isoindolin-1-one] | Inactive | 170 nM |  |
| Cc1ocnc1COc1cc2c(cc1-c1ccc(F)cc1)C(=O)NC2 [Compound 9, 6-(4-fluorophenyl)-5-((5-methyloxazol-4-yl)methoxy)isoindolin-1-one] | Inactive | 150 nM |  |
| [2H]C([2H])([2H])Oc1ccccc1-c1cc2c(cc1OCc1csc(C)n1)CNC2=O [Compound 21, 6-(2-(methoxy-d3)phenyl)-5-((2-methylthiazol-4-yl)methoxy)isoindolin-1-one] | Inactive | 1320 nM |  |
| CCCCCCCOC(=O)[C@@]1(F)[C@@H]2C[C@@H](OCc3ccc(Cl)c(Cl)c3)[C@@](N)(C(=O)O)[C@@H]21 [BCI-838] |  |  | levels of monomeric and oAβ peptides in the hippocampus and cortex (group II mGlu receptors; three months of treatment, two AD mouse models): decreased; Dutch APP transgene-associated learning and memory impairment (group II mGlu receptors; three months of treatment): reversed; anxiolytic effects (group II mGlu receptors; three months of treatment): anxiolytic effects; hippocampal progenitor cell proliferation (group II mGlu receptors; wild-type and Alzheimer's diseased mice, 3 months): stimulated |
| Cc1csc(COc2cc3c(cc2-c2ccc(F)cc2)C(=O)NC3)n1 [Compound 3, 6-(4-fluorophenyl)-5-((4-methylthiazol-2-yl)methoxy)isoindolin-1-one] | Inactive | 418 nM |  |
| Cn1ccc(COc2cc3c(cc2-c2ccc(C#N)cc2)C(=O)NC3)n1 [Compound 14, 4-(6-((1-methyl-1H-pyrazol-3-yl)methoxy)-3-oxoisoindolin-5-yl)benzonitrile] | Inactive | 242 nM |  |
| N[C@]1(C(=O)O)[C@H]2[C@@H](C[C@H]1OCc1ccc(Cl)c(Cl)c1)[C@]2(F)C(=O)O [BCI-632] |  |  | time for which brain concentration was sufficient to inhibit group II mGlu receptors (group II mGlu receptors; active metabolite after once-daily oral dosing of prodrug BCI-838): 22 h |
| O=C1NCc2cc(OCc3ccn(C(F)F)n3)c(-c3ccc(F)cc3)cc21 [Compound 17, 5-((1-(difluoromethyl)-1H-pyrazol-3-yl)methoxy)-6-(4-fluorophenyl)isoindolin-1-one] | Inactive | 292 nM |  |
